Experimental data reported in US20230263808A1 (UNIVERSITY OF FLORIDA RESEARCH FOUNDATION, INCORPORATED, priority 2020, published 2023).

Tests used:
[1] = test system: IL-1β-induced IL-6 secretion by A549 lung cells; assay: IL-1β-induced IL-6 secretion by A549 lung cells (AlphaLISA); assay type: cell-based
[2] = Lactate-tolerance test (rate of glucose production); assay type: in vivo, C57BL/6 male mice; conditions: after overnight fast; 10 mg/kg Dex or SR16024, 50 mg/kg SR11466
Text: A) The effects of all tested compounds on IL-1β-induced IL-6 production (x-axes) versus GR interaction with the indicated peptides. B-C) The effects of all tested compounds on the indicated GC-regulated phenotypes (x-axes) versus GR interaction with the CHD9_1023 and CENPR_1 peptides (y-axes). D-F) COC plots. Each point represents the Pearson correlation coefficient, r, between a distinct gene expression or GR-peptide interaction assay with assays indicated on the x and y axes. G) The effects of all tested compounds on IL-1β-induced IL-6 production (y-axes) versus insulin-induced protein synthesis. […] IL-β-induced IL-6 production by A549 cells treated with the indicated compounds was compared by AlphaLISA. […] Mice in panel K were subjected to a lactate-tolerance test (LTT).
We were also interested in whether the compounds would show dissociation between Glut4 translocation in skeletal muscle and gluconeogenesis in the liver, but enhanced glucose production is typically studied after weeks or months of GC treatment. However, we reasoned that an overnight fast should enable detection of effects after a single dose. […] Thus, profiling effects of GCs in the physiological context of nutrient deprivation allowed the discovery of two new types of glucocorticoids with improved profiles in skeletal muscle.

[3] = biological target: T1, androgen receptor (AR) (Homo sapiens, UniProt P10275); assay: AR-luciferase assay in 293T cells; assay type: cell-based
T1 construct: expressed in transfected cells; host or cells: 293T
T1 sequence (P10275 1-920): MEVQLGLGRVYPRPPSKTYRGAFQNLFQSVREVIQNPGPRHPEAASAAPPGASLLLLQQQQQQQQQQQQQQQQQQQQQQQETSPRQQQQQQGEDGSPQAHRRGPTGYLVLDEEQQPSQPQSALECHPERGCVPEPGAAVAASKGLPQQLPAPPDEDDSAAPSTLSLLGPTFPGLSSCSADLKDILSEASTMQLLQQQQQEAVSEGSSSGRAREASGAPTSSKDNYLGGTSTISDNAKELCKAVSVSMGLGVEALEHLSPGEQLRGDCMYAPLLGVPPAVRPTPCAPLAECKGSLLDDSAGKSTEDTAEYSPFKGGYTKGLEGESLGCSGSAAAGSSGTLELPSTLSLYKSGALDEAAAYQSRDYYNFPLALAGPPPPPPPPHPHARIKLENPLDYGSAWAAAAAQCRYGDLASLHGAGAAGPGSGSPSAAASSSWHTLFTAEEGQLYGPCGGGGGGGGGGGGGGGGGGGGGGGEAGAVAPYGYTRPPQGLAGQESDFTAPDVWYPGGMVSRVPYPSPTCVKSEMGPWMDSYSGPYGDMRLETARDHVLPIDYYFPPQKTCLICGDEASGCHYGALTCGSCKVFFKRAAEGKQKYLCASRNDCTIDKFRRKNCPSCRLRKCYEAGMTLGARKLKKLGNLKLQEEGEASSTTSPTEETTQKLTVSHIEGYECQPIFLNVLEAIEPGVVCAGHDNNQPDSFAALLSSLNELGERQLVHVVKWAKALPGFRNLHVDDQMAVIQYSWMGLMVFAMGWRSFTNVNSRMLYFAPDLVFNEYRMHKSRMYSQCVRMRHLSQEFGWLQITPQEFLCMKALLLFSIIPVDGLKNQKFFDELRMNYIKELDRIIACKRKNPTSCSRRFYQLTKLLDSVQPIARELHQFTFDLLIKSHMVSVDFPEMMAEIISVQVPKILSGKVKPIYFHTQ
Method: For native gene expression, C2C12 myotubes were treated compounds for 24 h. For MMTV-Luc assay, steroid-deprived 293T cells were co-transfected with a GR expression plasmid and an MMTV-driven luciferase reporter plasmid. The next day, cells were treated with compounds for 24 hrs. Each point represents the average of triplicate biological measurements for a separate compound. B) AR Luc assay development. Steroid-deprived 293T cells were transfected with AR expression plasmid and an ARR3-tk-driven luciferase reporter. The next day cells were treated with increasing doses of the indicated compounds. Data shown are mean+SD of triplicate measurements. C) AR-Luc assay identified 5 GCs with some AR activity.
For inclusion in the statistical analyses, assays were required to show high reproducibility, with a Pearson correlation >0.8 between different experiments (FIG. 2, H; FIG. 9, A). […] We also analyzed the effects of the compounds on expression of Fkbp5, Pdk4, and Klf15 mRNAs in C2C12 myotubes, and MMTV-luciferase and androgen receptor (AR) driven-luciferase activity in 293T cells. […] We also analyzed the effects of compounds on nuclear translocation of GR using a quantitative HTS approach (Htun et al., Proc. Natl. Acad. Sci. USA 93, 4845-4850, 1996). […]

IC50 ([1]; A549 lung cells, read-out: potency for inhibiting IL-1β-induced IL-6 secretion) | AR activity [3] | SMILES | inhibition of IL-6 production in combination with RU486 ([1]; A549 cells, with RU486) | rate of glucose production in lactate tolerance test [2]
4 nM | – | C=CCOC1CC2(C)C(CCC2(O)C#CC)C2CCc3cc(C(=O)Nc4cccnc4C)ccc3C12 (stereo not shown) [SR11466] | reversed by RU486 | increased the rate of glucose production
– | weak AR antagonist | CC#CC1(O)CCC2C3CCc4cc(C(=O)Nc5cccnc5C)ccc4C3C(OCc3ccc(Cl)cc3)CC21C (stereo not shown) [SR16025] | – | –
